Experimental findings from ChEMBL document CHEMBL2169821, “Design, synthesis, and evaluation of pH-dependent hydrolyzable emetine analogues as treatment for prostate cancer” (J Med Chem, 2012) are described below.

Data set [1] in a line: Chemical stability of the compound in phosphate buffer up to 48 hrs at pH 6.5 by HPLC analysis. The class given is physicochemical. As to conditions: pH 6.5, 48 h.
Data set [2] in a line: Chemical stability of the compound in phosphate buffer up to 48 hrs at pH 5.5 by HPLC analysis. As to conditions: pH 5.5, 48 h. Format: physicochemical.
Data set [3] deals with PC-3. Kind of data set: Cytotoxicity against human PC3 cells measured on day 7 by MTT assay. The class given is functional, cell-based.
For data set [4], the system named is PC-3. Kind of data set: Cytotoxicity against human PC3 cells measured on day 3 by MTT assay. The class given is functional, cell-based. (In general: Tetrazolium assays rely on reduction of a dye to a coloured formazan, in cell work by metabolically active cells.)
The test system of data set [5] is PC-3. In words: Cytotoxicity against human PC3 cells measured on day 5 by MTT assay. Format: functional, cell-based.
The subject of another data set is LNCaP. In words: Cytotoxicity against human LNCAP cells measured on day 7 by MTT assay. The class given is functional, cell-based.

Activity calls are given as the source filed them. No cut-off for these calls is given here.

Broadly, the IC50 is the concentration that gives 50% inhibition. Low readings indicate greater potency in that assay, high ones weaker potency in that assay. Turning to `CC[C@H]1CN2CCc3cc(OC)c(OC)cc3[C@@H]2C[C@@H]1C[C@@H]1c2cc(OC)c(OC)cc2CCN1C(=S)NCc1ccccc1`, the Stability entry in data set [1] and in data set [2] was “Stable” each time. Besides, the IC50 stood at 6920 nM in the data set with PC-3 [3] (Homo sapiens, PC-3, 168 h) and 2060 nM in the data set with LNCaP (Homo sapiens, LNCaP, 168 h). For the same compound, the outcome with PC-3 [4] and in the data set on PC-3 [5] was Active.

As to `CC[C@H]1CN2CCc3cc(OC)c(OC)cc3[C@@H]2C[C@@H]1C[C@@H]1c2cc(OC)c(OC)cc2CCN1C(=S)SCc1ccccc1`, the Stability entry in data set [1] and in data set [2] was “Stable” in each case. Further, the IC50 with PC-3 [3] (Homo sapiens, PC-3, 168 h) amounted to 1560 nM; in the data set on LNCaP (Homo sapiens, LNCaP, 168 h), 1970 nM. For the same compound, the result in the data set on PC-3 [4] and with PC-3 [5] was Active.

For `CC[C@H]1CN2CCc3cc(OC)c(OC)cc3[C@@H]2C[C@@H]1C[C@@H]1c2cc(OC)c(OC)cc2CCN1C(=O)NCc1ccc(Cl)cc1`, the Stability entry in data set [1] and in data set [2] was “Stable” each time. Further, the IC50 was found to be 10000 nM in the data set on PC-3 [3] (Homo sapiens, PC-3, 168 h) and 5410 nM in the data set with LNCaP (Homo sapiens, LNCaP, 168 h). Moreover, the outcome with PC-3 [4] and in the data set with PC-3 [5] was Active.

Take `CC[C@H]1CN2CCc3cc(OC)c(OC)cc3[C@@H]2C[C@@H]1C[C@@H]1c2cc(OC)c(OC)cc2CCN1C(=O)CCC(=O)O` [listing 1 of 2 here]: the IC50 in the data set with PC-3 [3] (pc-3) turned out to be 2100 nM; in the data set on LNCaP (lncap) it was 2410 nM.

Take `CC[C@H]1CN2CCc3cc(OC)c(OC)cc3[C@@H]2C[C@@H]1C[C@@H]1c2cc(OC)c(OC)cc2CCN1C(=O)/C=C(/C)C(=O)O`: in the data set on PC-3 [5], the result was Active.

Regarding `CC[C@H]1CN2CCc3cc(OC)c(OC)cc3[C@@H]2C[C@@H]1C[C@@H]1c2cc(OC)c(OC)cc2CCN1S(=O)(=O)c1ccc(OC)cc1`, the Stability entry in data set [1] and in data set [2] was “Stable” each time. Further, the IC50 was found to be 6080 nM in the data set with PC-3 [3] (Homo sapiens, PC-3, 168 h) and 3150 nM in the data set on LNCaP (Homo sapiens, LNCaP, 168 h). Also, the result in the data set on PC-3 [5] was Active.

In the case of `CC[C@H]1CN2CCc3cc(OC)c(OC)cc3[C@@H]2C[C@@H]1C[C@@H]1c2cc(OC)c(OC)cc2CCN1C(=O)NCc1ccc(OC)cc1`, the Stability result in data set [1] and in data set [2] was “Stable” in each case. The concentration for half-maximal inhibition (IC50) in the data set with PC-3 [3] (Homo sapiens, PC-3, 168 h) was 3670 nM; in the data set with LNCaP (Homo sapiens, LNCaP, 168 h), 7840 nM. Further, the outcome in the data set with PC-3 [4] and in the data set on PC-3 [5] was Active.

For the compound `CC[C@H]1CN2CCc3cc(OC)c(OC)cc3[C@@H]2C[C@@H]1C[C@@H]1c2cc(OC)c(OC)cc2CCN1C(=S)NCc1ccc(Cl)cc1`, the Stability result in data set [1] and in data set [2] was “Stable” in each case. Also, the IC50 was found to be 2860 nM in the data set with PC-3 [3] (Homo sapiens, PC-3, 168 h) and 1590 nM with LNCaP (Homo sapiens, LNCaP, 168 h). For the same compound, the outcome in the data set with PC-3 [4] and in the data set on PC-3 [5] was Active.

Regarding `CC[C@H]1CN2CCc3cc(OC)c(OC)cc3[C@@H]2C[C@@H]1C[C@@H]1c2cc(OC)c(OC)cc2CCN1C(=O)CCC(=O)O` [listing 2 of 2 here], the IC50 in the data set with PC-3 [3] (Homo sapiens, PC-3, 168 h) came to 2150 nM; in the data set with LNCaP (Homo sapiens, LNCaP, 168 h) it was 2450 nM.

With `CC[C@H]1CN2CCc3cc(OC)c(OC)cc3[C@@H]2C[C@@H]1C[C@@H]1c2cc(OC)c(OC)cc2CCN1S(=O)(=O)c1ccccc1`, the Stability result in data set [1] and in data set [2] was “Stable” each time. Besides, the IC50 in the data set with PC-3 [3] (Homo sapiens, PC-3, 168 h) was greater than 10000 nM; with LNCaP (Homo sapiens, LNCaP, 168 h), 2260 nM.

Regarding `CC[C@H]1CN2CCc3cc(OC)c(OC)cc3[C@@H]2C[C@@H]1C[C@@H]1c2cc(OC)c(OC)cc2CCN1C(=S)NCc1ccc(OC)cc1`, the Stability result in data set [1] and in data set [2] was “Stable” throughout. Moreover, the IC50 in the data set on PC-3 [3] (Homo sapiens, PC-3, 168 h) stood at 5000 nM; in the data set with LNCaP (Homo sapiens, LNCaP, 168 h) it was 3390 nM. Further, in the data set with PC-3 [5], the result was Active.

With `CC[C@H]1CN2CCc3cc(OC)c(OC)cc3[C@@H]2C[C@@H]1C[C@@H]1c2cc(OC)c(OC)cc2CCN1C(=O)/C=C\C(=O)O`, the result in the data set with PC-3 [4] and with PC-3 [5] was Active.
